Assay results as given in publication PMC10434032 (Microbiology Spectrum, 2023).
Read-outs that look alike come from different tables or passages of the source.

Columns and labels:
MPXV [1] = test: microbe, parasite or virus in culture; format: cell-based, Mpox virus; conditions: for IC50 / IC90: Monkeypox virus, Huh-7, 24 h; for IC50: read-out: Anti-MPXV activity: IC50; for IC90: read-out: Anti-MPXV activity: IC90
in vitro [2] = conditions: human
in vitro [3] = conditions: African green monkey
MPXV [4] = format: cell-based, Mpox virus
vaccinia virus (LC16m8) = format: cell-based
MPXV [5] = test: microbe, parasite or virus in culture; format: cell-based, Mpox virus; conditions: Monkeypox virus; for IC50: Vero C1008, read-out: Anti-MPXV activity: IC50; for IC90: Vero C1008, read-out: Anti-MPXV activity: IC90
MPXV [6] = format: cell-based, Mpox virus; remark: listed apart in the source
MPXV [7] = format: cell-based, Mpox virus; remark: listed apart in the source
MPXV [8] = format: cell-based, Mpox virus; remark: listed apart in the source
[9] = tested on: cowpox virus (Brighton Red); format: cell-based
[10] = tested on: MPXV SPL-mpx2A7 strain (clade IIb); format: cell-based, Mpox virus
[11] = tested on: MPXV Liberia strain (West African strain, clade IIa); format: cell-based, Mpox virus
ISG15 and ISG56 = format: cell-based, human
[12] = tested on: MPXV Zr-599 (Congo Basin strain, clade I); format: cell-based, Mpox virus

With CC[C@H](CC#N)OC(=O)N[C@@H](C)c1cccc(NC(=O)Nc2ccc(-c3cnco3)c(OC)c2)c1 [AVN-944] the IC50 (MPXV [1]) was 0.015 µM, the IC90 (MPXV [1]) was 0.042 µM and the CC50 (in vitro [2]) was > 10 µM.

For COc1c(C)c2c(c(O)c1C/C=C(\C)CCC(=O)O)C(=O)OC2 [MPA, mycophenolic acid], the “selectivity index (SI = CC50/IC50)” value (MPXV [1]) was > 10.6, the IC50 (MPXV [1]) was 0.94 µM and the IC90 (MPXV [1]) was 3.35 µM. For the same compound, the CC50 (in vitro [3]) was > 100 µM, the “MPXV protein expression (immunofluorescence)” value (shortened to “MPXV protein expression”) (MPXV [4]) was “drastically reduced” and the “expression of viral proteins (immunofluorescence)” value (shortened to “expression of viral proteins”) (vaccinia virus (LC16m8)) was “clearly reduced”. For the same compound, the IC50 (MPXV [5]) was 0.26 µM, the IC90 (MPXV [5]) was 0.37 µM and the “virions observed in cells by electron microscopy” value (from here on “virions observed in cells”) (MPXV [6]) was “few virions were observed”. For the same compound, the “effect of guanosine supplementation on MPA-mediated reduction of viral DNA levels” value (MPXV [7]) was “clearly recovered the MPA-mediated reduction of viral DNA levels in a dose-dependent manner”, the “antiviral activity by treatment period (a whole life cycle 0-24 h, b entry phase 0-2 h, c postentry 2-24 h)” value (“antiviral activity by treatment period” below) (MPXV [8]) was “significantly reduced under conditions a and c but not under condition b” and the “expression of viral proteins” value [9] was “clearly reduced”. The “expression of viral proteins” value [10] was “clearly reduced”, the “expression of viral proteins” value [11] was “clearly reduced” and the “induction of interferon-stimulated genes ISG15 and ISG56” value (ISG15 and ISG56) was “did not observe significant induction”. The CC50 (in vitro [2]) was > 10 µM.

With COc1cc(NC(=O)Nc2cccc(CNC(=O)O[C@H]3CCOC3)c2)ccc1-c1cnco1 [Merimepodib, merimepodib] the IC50 (MPXV [1]) was 0.29 µM, the IC90 (MPXV [1]) was 0.61 µM and the CC50 (in vitro [2]) was > 10 µM.

With COc1c(C)c2c(c(O)c1C/C=C(\C)CCC(=O)OCCN1CCOCC1)C(=O)OC2 [Mycophenolate mofetil, mycophenolate mofetil] the IC50 (MPXV [1]) was 0.34 µM, the IC90 (MPXV [1]) was 1.08 µM and the CC50 (in vitro [2]) was > 10 µM.

For NC(=O)c1ncn([C@@H]2O[C@H](CO)[C@@H](O)[C@H]2O)n1 [Ribavirin, ribavirin], the IC50 (MPXV [1]) was 13 µM, the IC90 (MPXV [1]) was 44 µM and the CC50 (in vitro [2]) was > 100 µM.

In the case of CCCCCCCCCCCCCCCCOCCCOP(=O)(O)CO[C@H](CO)Cn1ccc(N)nc1=O [brincidofovir], the CC50 (in vitro [3]) is reported as > 10 µM, the IC50 (MPXV [5]) is reported as 2.1 µM and the IC90 (MPXV [5]) is reported as 4.29 µM. For the same compound, the “antiviral activity by treatment period” value (MPXV [8]) was “significant antiviral activity in conditions a and c but not in condition b” and the “number of surviving cells (fold relative to DMSO-treated control cells)” value [12] was 103 fold.

For Nc1ccn([C@@H]2O[C@H](CO)[C@@H](O)C2(F)F)c(=O)n1 [gemcitabine], the CC50 (in vitro [3]) was > 100 µM, the “MPXV protein expression” value (MPXV [4]) was “drastically reduced” and the “expression of viral proteins” value (vaccinia virus (LC16m8)) was “clearly reduced”. The IC50 (MPXV [5]) was 0.024 µM, the IC90 (MPXV [5]) was 0.026 µM and the “virions observed in cells” value (MPXV [6]) was “few virions were observed”. The “antiviral activity by treatment period” value (MPXV [8]) was “significantly reduced under conditions a and c but not under condition b”, the “expression of viral proteins” value [9] was “clearly reduced” and the “expression of viral proteins” value [10] was “clearly reduced”. The “expression of viral proteins” value [11] was “clearly reduced”.

For O=C(NN1C(=O)[C@@H]2[C@@H]3C=C[C@@H]([C@H]4C[C@@H]34)[C@@H]2C1=O)c1ccc(C(F)(F)F)cc1 [tecovirimat], the “virions observed in cells” value (MPXV [6]) was “crescents, immature, and mature virions but not wrapped virions were observed” and the “number of surviving cells (fold relative to DMSO-treated control cells)” value [12] was 223 fold.

For O=c1[nH]c(=O)n([C@H]2C[C@H](O)[C@@H](CO)O2)cc1C(F)(F)F [trifluridine], the CC50 (in vitro [3]) was > 100 µM, the “MPXV protein expression” value (MPXV [4]) was “drastically reduced” and the “expression of viral proteins” value (vaccinia virus (LC16m8)) was “clearly reduced”. For the same compound, the IC50 (MPXV [5]) was 0.49 µM, the IC90 (MPXV [5]) was 0.89 µM and the “virions observed in cells” value (MPXV [6]) was “few virions were observed”. The “antiviral activity by treatment period” value (MPXV [8]) was “significantly reduced under conditions a and c but not under condition b”, the “expression of viral proteins” value [9] was “clearly reduced” and the “expression of viral proteins” value [10] was “clearly reduced”. For the same compound, the “expression of viral proteins” value [11] was “clearly reduced”.

With heparin the “antiviral activity by treatment period” value (MPXV [8]) was “significant antiviral activity under condition b”.
